This is an account of results in patent publication EP0761667A1, “Heterocyclic substituted pseudopeptides” (BAYER AG, priority 1995, dated 1997).

One assay concerns HIV. Put plainly: HIV infection in cell culture (PBL), microscopic evaluation of syncytia formation. It counts as cell-based. The conditions noted are these: HIV-infected normal human blood lymphocytes (PBL's), day 3 to 6 after infection; for PBL IC95: suppression of virus-induced syncytia; for IC50: Human immunodeficiency virus 1, Lymphocyte, 72 h, 50% suppression of virus-induced syncytia. On the procedure:
HIV-Infektion in Zellkultur
Der HIV-Test wurde mit geringen Modifikationen nach der Methode von Pauwels et al. [vgl. Journal of Virological Methods 20, (1988), 309-321] durchgeführt.
Normale menschliche Blutlymphozyten (PBL's) wurden über Ficoll-Hypaque angereichert und im RPMI 1640, 20% fötales Kälberserum mit Phytohaemagglutinin (90 µg/ml) und Interleukin-2 (40 U/ml) stimuliert. Zur Infektion mit dem infektiösen HIV wurden PBL's pelletiert und das Zellpellet wurde anschließend in 1 ml HIV-Virusadsorptionslösung suspendiert und 1 Stunde bei 37°C inkubiert.
Die Virusadsorptionslösung wurde zentrifugiert und das infizierte Zellpellet in Wachstumsmedium aufgenommen, so daß 1 x 10^5 Zellen pro ml eingestellt waren. Die derart infizierten Zellen wurden zu 1 x 10^4 Zellen/Napf in die Näpfe von 96er Mikrotiterplatten pipettiert.
Die erste vertikale Reihe der Mikrotiterplatte enthielt nur Wachstumsmedium und Zellen, die nicht infiziert, aber ansonsten genauso wie oben beschrieben, behandelt worden waren (Zellkontrolle). Die zweite vertikale Reihe der Mikrotiterplatte erhielt nur HIV-infizierte Zellen (Viruskontrolle) in Wachstumsmedium. Die übrigen Näpfe enthielten die erfindungsgemäßen Verbindungen in unterschiedlichen Konzentrationen, ausgehend von den Näpfen der 3. vertikalen Reihe der Mikrotiterplatte, von der die Prüfsubstanzen in 2er Schritten 2^10fach verdünnt wurden.
Die Testansätze wurden so lange bei 37°C inkubiert, bis in der unbehandelten Viruskontrolle die für das HIV typische Syncytienbildung auftrat (zwischen Tag 3 und 6 nach Infektion), die dann mikroskopisch ausgewertet wurde. In der unbehandelten Viruskontrolle resultierten unter diesen Testbedingungen etwa 20 Syncytien, während die unbehandelte Zellkontrolle keine Syncytien aufwies.
Die IC50-Werte wurden als die Konzentration der behandelten und infizierten Zellen ermittelt, bei der 50% (ca. 10 Syncytien) der virusinduzierten Syncytien durch die Behandlung mit der erfindungsgemäßen Verbindung unterdrückt waren. […]

The target in another assay is T1, HIV-1-Protease (Human immunodeficiency virus type 1 group M subtype B, UniProt P04585).
T1 construct: Gereinigte HIV-Protease wurde mit synthetischem Peptid
Put plainly: HIV-specific protease enzyme test (purified HIV protease, synthetic peptide substrate, RP-HPLC analysis of cleavage products). It counts as biochemical. From the text:
Es wurde überraschend gefunden, daß die Verbindungen der allgemeinen Formel (I) eine außerordentlich starke Wirkung gegen Retroviren besitzen. Dies wird mit einem HIV-spezifischen Protease-Enzymtest belegt.
Die Ergebnisse der unten aufgeführten Beispiele wurden nach dem in der folgenden Literaturangabe [vgl. Hansen, J., Billich, S., Schulze, T., Sukrow, S. and Mölling, K. (1988), EMBO Journal, Vol, 7, No. 6, pp. 1785 - 1791] beschriebenen HIV-Testsystem ermittelt: Gereinigte HIV-Protease wurde mit synthetischem Peptid, das eine Schnittstelle im Gag-Precursor-Protein imitiert und eine in vivo-Spaltstelle der HIV-Protease darstellt, inkubiert. Die entstandenen Spaltprodukte des synthetischen Peptids wurden über Reverse Phase High Performance Liquid Chromatography (RP-HPLC) analysiert. […]

Where [1] appears, read: purified HIV protease, synthetic peptide imitating a Gag precursor cleavage site, concentration giving 50% inhibition of protease activity, read-out: HIV-1-Protease-Inhibition IC50.
The mark [2] stands for this setting: purified HIV protease, synthetic peptide imitating a Gag precursor cleavage site.

Structures are written as SMILES. Where two headings read alike, the source gives them in different places. Where only a bound is given, the exact number is not on record here.

With `NC(=O)C[C@H](NC(=O)OC1CCS(=O)(=O)C1)C(=O)N[C@@H](Cc1ccccc1)[C@H](O)CN1[C@H](C(F)(F)F)C[C@@H]2CCC[C@@H]21` (stereo partly shown) [Beispiel 3], the “PBL IC95” value in the assay with HIV is recorded as 1,9 x 10^-6 Mol/l. The IC50 was determined as 1200 nM in the assay on HIV and 9.5 nM at HIV-1-Protease (setting [1]).

`O=C(N[C@@H](Cc1ccccc1)[C@H](O)CN1[C@H](C(F)(F)F)C[C@@H]2CCC[C@@H]21)O[C@H]1CCOC1` [Beispiel 6]: in the assay with HIV, the “PBL IC95” value is recorded as 1,3 x 10^-5 Mol/l and it took 2800 nM to reach half-maximal inhibition (IC50). The “HIV-1-Protease-Inhibition IC95” value at HIV-1-Protease (setting [2]) is listed as 5,0 x 10^-8 Mol/l. Also, the concentration for half-maximal inhibition (IC50) on HIV-1-Protease (setting [1]) worked out at 25 nM.

As to `O=C(N[C@@H](Cc1ccccc1)[C@H](O)CN1[C@H](C(F)(F)F)C[C@@H]2CCC[C@@H]21)OC1CCS(=O)(=O)C1` (stereo partly shown) [Beispiel 7], the IC50 in the assay with HIV is 6200 nM; at HIV-1-Protease (setting [1]), 25 nM.

Regarding `NC(=O)C[C@H](NC(=O)OC1C=CS(=O)(=O)C1)C(=O)N[C@@H](Cc1ccccc1)[C@H](O)CN1[C@H](C(F)(F)F)C[C@@H]2CCC[C@@H]21` (stereo partly shown) [Beispiel 4], the IC50 in the assay on HIV is over 16000 nM; on HIV-1-Protease (setting [1]), 2.1 nM. For the same compound, on HIV-1-Protease (setting [2]), the “HIV-1-Protease-Inhibition IC95” value is 3,9 x 10^-9 Mol/l.

Turning to `NC(=O)C[C@H](NC(=O)O[C@H]1CCOC1)C(=O)N[C@@H](Cc1ccccc1)[C@H](O)CN1[C@H](C(F)(F)F)C[C@@H]2CCC[C@@H]21` [Beispiel 2], the “PBL IC95” value in the assay with HIV is given as 3,5 x 10^-6 Mol/l. Further, the IC50 was 2000 nM in the assay with HIV and 0.27 nM at HIV-1-Protease (setting [1]). Further, at HIV-1-Protease (setting [2]), the “HIV-1-Protease-Inhibition IC95” value is on record as 3,6 x 10^-9 Mol/l.

Take `NC(=O)C[C@H](NC(=O)OC1CCOC1)C(=O)N[C@@H](Cc1ccccc1)[C@H](O)CN1[C@H](C(F)(F)F)C[C@@H]2CCC[C@@H]21` (stereo partly drawn) [Beispiel 1, (2S,3S)-3-(Tetrahydrofuran-3-yl-oxycarbonyl-L-asparaginyl)amino-1-[(S,S,S)-3-trifluormethyl-2-azabicyclo[3.3.0]octan-2-yl}-2-hydroxy-4-phenylbutan]: in the assay on HIV, the “PBL IC95” value is on record as 3,5 x 10^-6 Mol/l. The IC50 in the assay with HIV was 2200 nM; against HIV-1-Protease, 30 nM. In addition, the “HIV-1-Protease-Inhibition IC95” value on HIV-1-Protease (setting [2]) is 3,8 x 10^-7 Mol/l.

On to `O=C(N[C@@H](Cc1ccccc1)[C@H](O)CN1[C@H](C(F)(F)F)C[C@@H]2CCC[C@@H]21)OC1CCOC1` (stereo partly drawn) [Beispiel 5, (2R,3S)-3-(Tetrahydrofuran-3-yl-oxycarbonyl)-amino-1-{(S,S,S)-3-trifluormethyl-2-azabicyclo[3.3.0]octan-2-yl}-2-hydroxy-4-phenylbutan], for which, in the assay on HIV, the “PBL IC95” value is reported as 2,2 x 10^-5 Mol/l and inhibition was half-maximal at 14000 nM (IC50). The IC50 on HIV-1-Protease stood at 4.1 nM. The “HIV-1-Protease-Inhibition IC95” value at HIV-1-Protease (setting [2]) was 4,7 x 10^-8 Mol/l.

Consider `O=C(N[C@@H](Cc1ccccc1)[C@H](O)CN1[C@H](C(F)(F)F)C[C@@H]2CCC[C@@H]21)OC1C=CS(=O)(=O)C1` (stereo partly shown) [Beispiel 8], for which, in the assay on HIV, the “PBL IC95” value was over 2e-05 mol/L and half-maximal inhibition (IC50) was put at 17000 nM. For the same compound, the “HIV-1-Protease-Inhibition IC95” value at HIV-1-Protease (setting [2]) is 4,1 x 10^-8 Mol/l. Besides, on HIV-1-Protease (setting [1]), the IC50 was determined as 3.2 nM.

A word on the IC50: it is the concentration needed to halve the response being measured.
